# Data published in US4089966A, “5-N-(3-Amino-2-hydroxy-propyl)-amino-1,2,4-oxadiazole derivatives, processes for their preparation and applications thereof” (Aron Sarl, priority 1975, dated 1978).
# Counter-ions that a name gives are not always drawn. Like-named read-outs stand apart in the source and are kept apart here.
# Assays:
# [1] = Chronic toxicity, oral, 3 months, young adult rats; format: in vivo, rats of Sprague Dawley (Charles River) strain; conditions: oral, 25, 75 and 150 mg/kg during 3 months
# Protocol: The compound of Example 1 was administered orally to young adult rats of Sprague Dawley (Charles River) strain, at dosages of 25, 75 and 150 mg/kg during 3 months.
# [2] = test system: surface anesthesia in rabbits; assay: Surface anesthesia in rabbits compared to Butacaine; format: in vivo; conditions: Butacaine = 1
# [3] = test system: BaCl2 -induced contraction of the duodenum; assay: Antispasmodic activity compared to Papaverine (BaCl2-induced contraction of the duodenum); conditions: Papaverine = 1
# [4] = test system: conduction anesthesia in guinea-pigs; assay: Conduction anesthesia in guinea-pigs compared to Xylocaine; format: in vivo; conditions: Xylocaine = 1
# [5] = Chronic toxicity, intravenous, 1 month, young male adult mice; format: in vivo; conditions: 1 and 5 mg/kg during 1 month
# Protocol: The compound of Example 1 was also administered intravenously to young male adult mice, at dosages of 1 and 5 mg/kg during 1 month.
# [6] = Acute toxicity (LD 50%, semi-logarithmic technique of Lichfield and Wilcoxon); format: in vivo; conditions: for LD50: in vivo
# Description: Each value represents the LD 50% expressed as mg/kg, according to the semi-logarithmic technique disclosed by Lichfield and Wilcoxon.
# [7] = test system: arrhythmia induced by Strophantine in combination with adrenaline; assay: Preventive action on arrhythmia induced by perfusion of K-Strophantine in combination with adrenaline; format: in vivo, guinea-pits; conditions: K-Strophantine 0.I5mg/ml + Adrenaline 5μg/ml, ±SD, control 1.21±0.33
# Protocol: (§1) a. Two Examples are given to show the preventive action, by the intravenous route:
# (§2) 1. in guinea-pits, on arrhythmia induced by Strophantine alone or in combination with adrenaline;
# (§3) The various compounds of the above Table are administered just prior to
# (§4) perfusion of the arrhythmogenic materials (K-Strophantine,
# (§5) K-Strophantine-Adrenaline, Aconitine). The values represent the period of
# (§6) time ± SD (standard deviation) before the first signs of arrhythmia
# [8] = test system: aconitine-induced rhythm disorders; assay: Preventive action on aconitine-induced rhythm disorders; format: in vivo, rats; conditions: Aconitine 50mg/l, 0.2ml/mn, ±SD, control 85±15
# Protocol: as §1
# 2. in rats, on aconitine-induced rhythm disorders.
# as §3, §4, §5, §6
# [9] = test system: arrhythmia induced by Strophantine alone; assay: Preventive action on arrhythmia induced by perfusion of K-Strophantine alone; format: in vivo, guinea-pits; conditions: K-Strophantine 0.I5mg/ml, 0.5ml/mn, ±SD, control 2.45±0.22
# Protocol: as §1, §2, §3, §4, §5, §6
# [10] = test system: disorders of the cardiac rhythm in non-anesthetized dogs 24 hours after coronary ligation; assay: Curative activity on disorders of the cardiac rhythm 24 hours after coronary ligation (method according to Harris); format: in vivo; conditions: for Percent sinus rhythm after administration of the compound: extreme values in parenthesis
# Description: b. An Example is given to show the curative activity by the oral route.
# As is apparent from following Table IV, the effect is a function of the disage administered.
# [11] = test system: disorders of the cardiac rhythm; assay: Clinical tests, oral administration in patients suffering from disorders of the cardiac rhythm; format: in vivo; conditions: oral, 200, 400 and 600 mg
# [12] = intravenous route, read-out: LD50, intravenous route
# [13] = oral route, read-out: LD50, oral route
SMILES,"Ratio between the activity of compound (I) and the activity of Butacaine for surface anesthesia, on administration of a same dosage [2]",Ratio between the dosage of Papaverine and the dosage of Compound (1) producing the same antispasmodic activity [3],"Ratio between the activity of compound (I) and the activity of Xylocaine for conduction anesthesia, on administration of a same dosage [4]","LD50 [6, 12] [mg/kg]","LD50 [6, 13] [mg/kg]",other results
"CCN(CC)CC(O)CN(C)c1nc(-c2ccccc2)no1 (stereo not drawn) [Example 1, 5-N-(3-diethylamino-2-hydroxy-propyl)-N-methylamino-3-phenyl-1,2,4-oxadiazole fumarate hydrate]",1.5,1.5,1,30,280,"change of weight of the organs on autopsy [1]: No change of weight of the organs was found; hematologic examination, biochemical blood tests and urinalysis [1]: No anomaly was detected; histological anomaly on anatomicopathological examination [1]: No histological anomaly, and particularly no liver, kidney or brain injury was found; glycemia and serum transaminase level [5]: comparable in the treated animals and in the control animals; hematological examination [5]: No substantial modifications were found; histological anomaly on autopsy [5]: No histological anomaly was found on autopsy, particularly no cytologic injury of the liver, the kidneys, the pancreas, the heart or the brain; local tolerance of the injections [5]: well tolerated locally; period of time before the first signs of arrhythmia appear ([7]; 10 mg/kg intravenous): 1.62±0.42 decimal minutes; period of time before the first signs of arrhythmia appear ([8]; 5 mg/kg intravenous): 141 ± 28 s; period of time before the first signs of arrhythmia appear ([8]; 10 mg/kg intravenous): 126 ± 23 s; period of time before the first signs of arrhythmia appear ([9]; 5 mg/kg intravenous): 3.27±0.4 decimal minutes; period of time before the first signs of arrhythmia appear ([9]; 10 mg/kg intravenous): 3.18±0.33 decimal minutes; Percent sinus rhythm after administration of the compound ([10]; 10 mg/kg oral, 3 tests, prior to administration 5%(0-15%)): 25%(0-65%); Percent sinus rhythm after administration of the compound ([10]; 25 mg/kg oral, 8 tests, prior to administration 5.6% (0-18%)): 59%(5-100%); Percent sinus rhythm after administration of the compound ([10]; 50 mg/kg oral, 6 tests, prior to administration 7.6% (0-20%)): 71.6% (25-100%); curative activity on disorders of the cardiac rhythm after coronary ligation (in words) ([10]; non-anesthetized dogs, oral route): corrects the disorders of the cardiac rhythm; effects in patients suffering from disorders of the cardiac rhythm [11]: beneficial effects; Tolerance ([11]; patients): good"
CCN(CC)CC(O)CNc1nc(-c2ccccc2)no1 (stereo not drawn) [Example 2],1,1,1.4,55,700,period of time before the first signs of arrhythmia appear ([7]; 10 mg/kg intravenous): 2.73±0.5 decimal minutes; period of time before the first signs of arrhythmia appear ([8]; 10 mg/kg intravenous): 155 ± 32 s; period of time before the first signs of arrhythmia appear ([9]; 10 mg/kg intravenous): 3.04±0.52 decimal minutes
"CCN(CC)CC(O)CNc1nc(-c2ccc(F)cc2)no1 (stereo not drawn) [Example 4, 5-(3-diethylamino-2-hydroxy-propyl)-amino-3-(4-fluorophenyl)-1,2,4-oxadiazole fumarate]",1.4,,1.5,,750,
CCN(CC)CC(O)CN(CC)c1nc(-c2ccccc2)no1 (stereo not drawn) [Example 5],1.7,3,1.7,18,200,period of time before the first signs of arrhythmia appear ([7]; 5 mg/kg intravenous): 1.60±0.35 decimal minutes; period of time before the first signs of arrhythmia appear ([8]; 5 mg/kg intravenous): 119 ± 15.5 s; period of time before the first signs of arrhythmia appear ([9]; 5 mg/kg intravenous): 3.43±0.51 decimal minutes
"CCCN(CC(O)CN(CC)CC)c1nc(-c2ccccc2)no1 (stereo not drawn) [Example 7, 5-[N-(3-diethylamino-2-hydroxy-propyl)-N-propyl]amino-3-phenyl-1,2,4-oxadiazole fumarate hydrate]",,,,,250,insoluble (entry in place of the intravenous LD50) ([6]; intravenous route): inso-; period of time before the first signs of arrhythmia appear ([7]; 2.5 mg/kg intravenous): 1.74±0.16 decimal minutes; period of time before the first signs of arrhythmia appear ([8]; 2.5 mg/kg intravenous): 185 ± 48 s; period of time before the first signs of arrhythmia appear ([9]; 2.5 mg/kg intravenous): 2.85±0.1 decimal minutes
C=CCN(CC(O)CN(CC)CC)c1nc(-c2ccccc2)no1 (stereo not drawn) [Example 8],1.5,2.5,1,,,
"CCCN(CCC)CC(O)CN(C)c1nc(-c2ccccc2)no1 (stereo not drawn) [Example 9, 5-N-(3-dipropylamino-2-hydroxy-propyl)-N-methylamino-3-phenyl-1,2,4-oxadiazole fumarate hydrate]",1.65,4,1.6,50,250,period of time before the first signs of arrhythmia appear ([7]; 2.5 mg/kg intravenous): 1.77±0.08 decimal minutes
CN1CCN(CC(O)CNc2nc(-c3ccccc3)no2)CC1 (stereo not drawn) [Example 10],,,,,750,insoluble (entry in place of the intravenous LD50) ([6]; intravenous route): inso-
CCN(CC)CC(O)CN(C)c1nc(-c2ccncc2)no1 (stereo not drawn) [Example 11],1.5,0.2,1,100,750,period of time before the first signs of arrhythmia appear ([7]; 10 mg/kg intravenous): 1.3±0.3 decimal minutes; period of time before the first signs of arrhythmia appear ([8]; 20 mg/kg intravenous): 129 ± 21 s
CCNCC(O)CN(CC)c1nc(-c2ccccc2)no1 (stereo not drawn) [Example 12],1,0.8,1.65,,,
"COc1ccc(Cc2nccc3cc(OC)c(OC)cc23)cc1OC [Papaverine, reference compound]",,1,,,,
